Series [1] has as its system S. aureus (ATCC 29213). The series is described as follows: Reduction of viability by plate count, S. aureus. In kind it is cell-based, Staphylococcus aureus. To be noted: 4 μg/mL. How it is done: (§1) An overnight culture (12 to 16 h) of S. aureus (ATCC 29213) or E. coli (ATCC 25922) in Tryptic Soy Broth (TSB) was grown at 37 °C and 400 μL were added in 50 mL of tryptone water (∼10^7 bacteria/mL). The bacterial suspension was split into aliquots of 4-5 mL and treated with the peptides (at the MIC) for different incubation times at room temperature. Cells were collected by centrifugation (10000 rpm, 20 min) and resuspended in 1 mL of filtered Ringer’s solution.

The subject of series [2] is E. coli. How it is done:
(§2) Strains of E. coli and P. aeruginosa with resistance to quinolones and carbapenems as well as multi-drug-resistant bacteria were tested.
(§3) MICs were measured after 18–20 h of incubation in sterile 96-well plates (Corning Costar 3598 microtiter plates) in Mueller Hinton Broth (MHB) culture medium, (Difco, USA), according to well known in vitro protocols. Bacterial strains in Table 1 were: P. aeruginosa ATTC 9027, E. coli ATTC 8739, S. aureus ATTC 6538, and E. faecalis ATTC 29212. MICs shown in table 4 were performed by Mary Conrad at Cubist Pharmaceuticals (Lexington, MA) in non-binding surface plates.

For series [3], the system named is P. aeruginosa. How it is done:
as §2, §3

The test system of series [4] is CD-1 mice. Nature of the series: In vivo acute toxicity test (up-and-down procedure, OECD 425). The following applies: for Outcome of mice: CD-1 mice. How it is done:
(§4) An in vivo acute toxicity test was performed on CD-1 mice. The lethal dose (LD50) was determined according to the up-and-down procedure. Compound 38 was administered subcutaneously at designated doses (100, 200 and 400 mg/kg).
(§5) The evaluation of acute toxicity was conducted based on OECD 425 (Acute Oral Toxicity – Up-and-Down-Procedure (UDP) March 2006). The procedure was evaluated and accepted by the Ethical Committee of Experimental Animals of the University of Barcelona.
(§6) The main test consists of a single ordered dose progression in which animals are dosed, one at a time, at a minimum of 24-hour intervals.
(§7) Compound 38 was dissolved in PBS (pH 7.4), and administered subcutaneously to CD-1 mice at selected doses (100, 200 and 400 mg/kg). Since 5 reversals occurred in 6 consecutive animals tested between the 200 mg/Kg dose (the 3 animals, survived), and the 400 mg/Kg dose (the 3 animals died) the test was stopped.
(§8) Mortality was monitored for 14 days post-treatment, and LD50 was determined using the maximum likelihood method.

Test in series [5]: as above
Also on record: species or system mice. The following applies: mouse, in vivo, sc; CD-1 mice, subcutaneous, up-and-down procedure, maximum likelihood method, 14 days. How it is done:
as §4, §5, §6, §7, §8

The subject of series [6] is E. coli (ATCC 25922). The series is described as follows: Reduction of viability by plate count, E. coli. In kind it is cell-based, Escherichia coli. To be noted: 4 μg/mL. How it is done:
as §1

Series [7] has as its system E. coli (ATCC 25922). The series is described as follows: Flow cytometry (PI membrane permeability, BOX membrane potential), E. coli. The following applies: 4 μg/mL. The class given is cell-based, Escherichia coli. How it is done:
(§9) The mechanism of action at the membrane level of our best candidate was studied using flow cytometry. To assess membrane permeability, a propidium iodide (PI) probe was used[43][44]. The fluorescence conferred by this probe is generally associated with cells that have lost their membrane integrity. The effect on membrane potential was evaluated with bis-(1,3-dibutylbarbituric acid) trimethine oxonol (BOX). Membrane depolarization leads to the incorporation of this anionic dye into the cell where it binds to lipid-rich intracellular compounds, resulting in an increase in fluorescence.
as §1
(§10) A stock solution of propidium iodide (PI, 1 mg/mL, Molecular Probes) and bis-(1,3-dibutylbarbituric acid) trimethine oxonol (BOX, 250 μM, Sigma Aldrich) was prepared in distilled water. Portions (10 μL and 2 μL, respectively) were added to aliquots of cells (100 μL of each sample in 1 mL of Ringer’s solution) to give a final concentration of 10 μg/mL of PI and 0.5 μM for BOX.
(§11) Flow cytometric measurements were performed on a Gallios multi-colour flow cytometer instrument (Beckman Coulter, Inc, Fullerton, CA) set up with the 3-lasers 10 colors standard configuration. Excitation was done using a blue (488 nm) laser. Forward scatter (FS), side scatter (SS), green fluorescence (525/40 nm) from BOX and red fluorescence (620/30 nm) emitted by PI were collected using logarithmic scales. FS was used as the discriminating parameter. The single-cell bacterial population was selected on a forward-side scatter plot. Fluorescence was presented in a dot plot of BOX vs. PI. Three regions were defined on this graph according to the controls: depolarized, permeabilized and non-affected cells. Control cells (non-stained and single stained populations) were used to define these regions. 25,000 cells defined according to their scatter parameters were counted in each sample.
(In general: In flow cytometry, cells or beads pass a laser one at a time.)

For series [8], the system named is S. aureus (ATCC 29213). The series is described as follows: Flow cytometry (PI membrane permeability, BOX membrane potential), S. aureus. To be noted: 4 μg/mL. The class given is cell-based, Staphylococcus aureus. How it is done: as §9, §1, §10, §11
Series [9] has as its system E. coli ATTC 8739. The class given is cell-based, Escherichia coli. To be noted: ATTC 8739. The gist of the method:
(§12)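 MIC determined by broth microdilution in Mueller Hinton Broth, read after 18–20 h incubation. Part of the MIC testing was run in non-binding surface plates.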

The subject of series [10] is S. aureus (ATCC 29213). The series is described as follows: Transmission electron microscopy of treated S. aureus. The class given is cell-based, Staphylococcus aureus. The following applies: 4 μg/mL, 120 min. How it is done: (§13) An overnight culture (12 to 16 h) of S. aureus (ATCC 29213) or E. coli (ATCC 25922) in Tryptic Soy Broth (TSB) was grown at 37 °C and 500 μL were added in 50 mL of tryptone water (∼10^8 bacteria/mL). […] Cells were collected by centrifugation (10000 rpm, 20 min).
(§14) Samples were fixed with 2.5% glutaraldehyde in phosphate buffer for 2 h at 4 °C, then washed with the same buffer and post fixed with 1% osmium tetroxide in buffer containing 0.8% potassium ferricyanide at 4 °C. The samples were then dehydrated for 1 hour in acetone and infiltrated in a gradded series of Epon resin (Ted Pella Inc., USA) during 2 days, and finally embedded in fresh Epon resin and polymerised at 60 °C during 48 hours.
(§15) Ultrathin sections were obtained using a Leica Ultracut UCT ultramicrotome (Leica, Vienna) and mounted on Formvar-coated copper grids. Sections were stained with 2% aqueous uranyl acetate and lead citrate and examined in a JEM-1010 electron microscope (Jeol, Japan).

The test system of series [11] is P. aeruginosa ATTC 9027. In kind it is cell-based, Pseudomonas aeruginosa. To be noted: ATTC 9027. The gist of the method: as §12
Series [12] relates to E. coli (ATCC 25922). Nature of the series: Transmission electron microscopy of treated E. coli. In kind it is cell-based, Escherichia coli. The following applies: 120 min, 2 μg/mL (Figure 2 legend). How it is done:
as §13, §14, §15

The test system of series [13] is P. aeruginosa. To be noted: P. aeruginosa 40b strain characterisation; cited from earlier work.
Setting [14] is: resistant to nalidixic acid, cotrimoxazole and ampicillin.

≈ marks a conversion by molar mass, not a printed value. Entries after “also recorded” stand apart in the source; their conditions may differ. Bridge positions count the residues as written; N and C are the ends. Square brackets hold non-standard residues; d marks the D form. Peptide text beside a SMILES is read from it. * marks the point of attachment. Decanoyl = CCCCCCCCCC(=O)*; Nle = CCCC[C@H](N)C(=O)O; Dab = NCC[C@H](N)C(=O)O

Broadly, the LD50 is the dose expected to kill half of the subjects tested. On to `CCCCCCCCCC(=O)N[C@@H](CCN)C(=O)N[C@H](C(=O)N[C@@H](CCN)C(=O)N[C@H]1CSSC[C@H](C(N)=O)NC(=O)[C@H](CCN)NC(=O)[C@H](CCN)NC(=O)[C@H](CCCC)NC(=O)[C@@H](Cc2ccccc2)NC(=O)[C@H](CCN)NC1=O)[C@@H](C)O` [Analog 38, decanoyl -Dab-Thr-Dab-Cys-Dab-Phe-Nle-Dab-Dab-Cys] (Decanoyl-[Dab]T[Dab]C[Dab][dF][Nle][Dab][Dab][dC]-NH2; disulfide 4-10), for which the “% viability reduction” value in series [1] (30 min) amounted to 15%; in series [1] (60 min), 60%; in series [1] (120 min), 85%; in series [6] (30 min) it was 20%; in series [6] (60 min), 60%; in [6] (120 min), 85%. Moreover, in series [2] (highly-resistant, New Delhi metallo-beta-lactamase gene), the “MIC E. coli NDM-1” value came out at 0.5 µg/mL (≈ 0.404 µM). In addition, the “MIC E. coli VAL 5” value in series [2] (resistant to nalidixic acid) worked out at 0.5 µg/mL (≈ 0.404 µM). Moreover, in [2] (setting [14]), the “MIC E. coli MAC 21a” value amounted to 0.5 µg/mL (≈ 0.404 µM). Further, the “MIC E. coli VAL 10” value in series [2] (setting [14]) amounted to 0.5 µg/mL (≈ 0.404 µM). The “MIC P. aeruginosa 38a” value in [3] turned out to be 0.5 µg/mL (≈ 0.404 µM). Besides, the “MIC P. aeruginosa 40b” value in series [3] was 4 µg/mL (≈ 3.23 µM). Moreover, the Outcome of mice result is reported as “survived with no signs of toxicity” in series [4] (100 mg/kg subcutaneous), “survived with no signs of toxicity; also recorded: survived” in [4] (200 mg/kg subcutaneous) and “died” in [4] (400 mg/kg subcutaneous). Besides, the “Necropsy of surviving mice” value in series [4] (200 mg/kg subcutaneous, after 14 days) is listed as “no signs of pathology in vital organs”. Also, the “LD50 relative to LD50 of PxB” value in series [4] (subcutaneous) is reported as approximately 5 times. In series [5], the LD50 at 14 days is 283 mg/kg. For the same molecule, the “% of stained cells PI” value in series [7] (30 min) turned out to be 7%; in series [7] (60 min) it was 23%; in series [7] (120 min), 43%; in series [8] (30 min), 2%; in series [8] (60 min), 3%; in [8] (120 min), 4%. The “% of stained cells BOX” value in [7] (30 min, listed as 38) was “around 50%”; in series [7] (30 min, listed as #38), 47%; in series [7] (60 min), 50%; in series [7] (120 min), 47%; in series [8] (30 min), 1%; in series [8] (60 min), 1%. The “% of stained cells BOX” value in [8] (120 min) was determined as 4%. Also, the “MIC E. coli” value in series [9] worked out at 2 µg/mL (≈ 1.62 µM). The “Effect on cell morphology (TEM)” value in series [10] was “numerous double-layered spherical mesosome-like structures”; in series [12], “abnormal membrane septation and the formation of blebs on the bacterial surface”. In addition, the “MIC P. aeruginosa” value in series [11] was 1 µg/mL (≈ 0.808 µM).

As to `C[C@@H](O)[C@H]1C(=O)N2C(C(=O)O)=C(SCCN=CN)C[C@H]12` [Imipenem], in series [13], the “MIC, resistance profile of P. aeruginosa 40b” value is “imipenem (MIC 32 mg/L)”.

The values above are taken from publication PMC4603705, “A bioinspired peptide scaffold with high antibiotic activity and low in vivo toxicity” (Scientific Reports, 2015).
